# Data: patent US20100003301A1, “Bone Defect Filler, Release-Controlled Carrier, And Their Production Methods” (The University of Tokyo, priority 2006, published 2010)
# Assay: Viscosity measurement of blocking agents (LVDV digital viscometer)
# Type: physicochemical
# Conditions: viscosity could not be measured
# Experimental: A Z printer 406 made by Z corporation was used to produce a bone filling material. “LVDV” which is a digital viscometer made by Brookfield Co., Ltd. was used to measure viscosity. A UL (ultra low viscosity) adapter was used when the viscosity was measured. Bending strength was measured by a rheometer made by Sun Science Co., Ltd.
# Viscosity of blocking agents were measured by “LVDV” which is a digital viscometer made by Brookfield Co., Ltd. The results are shown in Table 2.
structure (smiles),measurement,value
NC(=O)CC[C@H](N)C(=O)O [L-glutamine],dissolution in water,cannot be dissolved in water
